PubChem BioAssay AID1259407 (Chemical Carcinogenesis Research Information System (CCRIS), 2018)
Activity calls are given as the source filed them. The rule behind the calls is not given here.

System: CCRIS mutagenicity, Ames/micronucleus/aberration tests
Assay: CCRIS mutagenicity studies
[1] = Test System: AMES SALMONELLA TYPHIMURIUM, Strain/Indicator: TA98, Metabolic Activation: NONE, Method: STANDARD PLATE
[2] = Test System: AMES SALMONELLA TYPHIMURIUM, Strain/Indicator: TA98, Metabolic Activation: RAT, LIVER, S-9, AROCLOR 1254, Method: STANDARD PLATE
[3] = Test System: AMES SALMONELLA TYPHIMURIUM, Strain/Indicator: TA100, Metabolic Activation: NONE, Method: STANDARD PLATE
[4] = Test System: AMES SALMONELLA TYPHIMURIUM, Strain/Indicator: TA100, Metabolic Activation: RAT, LIVER, S-9, AROCLOR 1254, Method: STANDARD PLATE
[5] = Test System: AMES SALMONELLA TYPHIMURIUM, Strain/Indicator: TA98, Metabolic Activation: NONE, Method: PREINCUBATION
[6] = Test System: AMES SALMONELLA TYPHIMURIUM, Strain/Indicator: TA100, Metabolic Activation: NONE, Method: PREINCUBATION

CCOC(=O)c1ccc(N(O)C=O)cc1
mutagenic call [1]: inactive; negative | mutagenic call [2]: inactive; negative | mutagenic call [3]: inactive; negative | mutagenic call [4]: inactive; negative

OC1CC=Cc2c1cc1ccc3cccc4ccc2c1c34 (stereo unspecified)
mutagenic call [2]: active; positive

CC(C)(C)NCC(O)COc1ccccc1C1=CCCC1 (stereo unspecified)
mutagenic call [1]: inactive; negative | mutagenic call [2]: inactive; negative

Oc1c2c(c3c(ccc4c3ccc3ccc5ccccc5c34)c1O)O2
mutagenic call (Test System: AMES SALMONELLA TYPHIMURIUM, Strain/Indicator: TA97, Metabolic Activation: NONE, Method: PREINCUBATION): active; positive | mutagenic call [5]: active; positive | mutagenic call [6]: active; positive | mutagenic call (Test System: AMES SALMONELLA TYPHIMURIUM, Strain/Indicator: TA104, Metabolic Activation: NONE, Method: PREINCUBATION): active; positive | mutagenic call (Test System: CHINESE HAMSTER V-79, Strain/Indicator: V-79/6-THIOGUANINE, Metabolic Activation: NONE): active; positive

COC(=O)COc1ccc(Cl)cc1Cl
mutagenic call (Test System: AMES SALMONELLA TYPHIMURIUM, Strain/Indicator: TA97, Metabolic Activation: NONE, Method: STANDARD PLATE): inactive; negative | mutagenic call (Test System: AMES SALMONELLA TYPHIMURIUM, Strain/Indicator: TA97, Metabolic Activation: RAT, LIVER, S-9, AROCLOR 1254, Method: STANDARD PLATE): inactive; negative | mutagenic call [1]: inactive; negative | mutagenic call [2]: inactive; negative | mutagenic call [3]: inactive; negative | mutagenic call [4]: inactive; negative | mutagenic call (Test System: AMES SALMONELLA TYPHIMURIUM, Strain/Indicator: TA102, Metabolic Activation: NONE, Method: STANDARD PLATE): inactive; negative | mutagenic call (Test System: AMES SALMONELLA TYPHIMURIUM, Strain/Indicator: TA102, Metabolic Activation: RAT, LIVER, S-9, AROCLOR 1254, Method: STANDARD PLATE): inactive; negative

CCOP(=S)(OCC)Oc1ccc([N+](=O)[O-])cc1
mutagenic call [5]: inactive; negative | mutagenic call (Test System: AMES SALMONELLA TYPHIMURIUM, Strain/Indicator: TA98, Metabolic Activation: RAT, LIVER, S-9, KANECHLOR 500, Method: PREINCUBATION): inactive; negative | mutagenic call [6]: active; positive | mutagenic call [3]: inactive; negative | mutagenic call (Test System: AMES SALMONELLA TYPHIMURIUM, Strain/Indicator: TA100, Metabolic Activation: RAT, LIVER, S-9, KANECHLOR 500, Method: PREINCUBATION): active; positive | mutagenic call (Test System: AMES SALMONELLA TYPHIMURIUM, Strain/Indicator: TA100, Metabolic Activation: S-9, Method: STANDARD PLATE): active; positive

O=Cc1ccc(C(=O)ON(OCc2ccccc2)C(=O)c2ccccc2)cc1
mutagenic call [3]: active; positive | mutagenic call (Test System: AMES SALMONELLA TYPHIMURIUM, Strain/Indicator: TA100, Metabolic Activation: RAT, S-9, AROCLOR, Method: STANDARD PLATE): active; positive

Cc1c(C(C)C)c(=O)n(-c2ccccc2)n1C
mutagenic call (Test System: AMES SALMONELLA TYPHIMURIUM, Strain/Indicator: TA98, Metabolic Activation: GUINEA PIG, LIVER, S-9, PCB, Method: PREINCUBATION): inactive; negative | mutagenic call (Test System: AMES SALMONELLA TYPHIMURIUM, Strain/Indicator: TA98, Metabolic Activation: HAMSTER, LIVER, S-9, PCB, Method: PREINCUBATION): inactive; negative | mutagenic call (Test System: AMES SALMONELLA TYPHIMURIUM, Strain/Indicator: TA98, Metabolic Activation: MOUSE, LIVER, S-9, PCB, Method: PREINCUBATION): inactive; negative | mutagenic call [5]: inactive; negative | mutagenic call (Test System: AMES SALMONELLA TYPHIMURIUM, Strain/Indicator: TA98, Metabolic Activation: RAT, LIVER, S-9, PCB, Method: PREINCUBATION): inactive; negative | mutagenic call (Test System: AMES SALMONELLA TYPHIMURIUM, Strain/Indicator: TA100, Metabolic Activation: GUINEA PIG, LIVER, S-9, PCB, Method: PREINCUBATION): inactive; negative | mutagenic call (Test System: AMES SALMONELLA TYPHIMURIUM, Strain/Indicator: TA100, Metabolic Activation: HAMSTER, LIVER, S-9, PCB, Method: PREINCUBATION): inactive; negative | mutagenic call (Test System: AMES SALMONELLA TYPHIMURIUM, Strain/Indicator: TA100, Metabolic Activation: MOUSE, LIVER, S-9, PCB, Method: PREINCUBATION): inactive; negative | mutagenic call [6]: inactive; negative | mutagenic call (Test System: AMES SALMONELLA TYPHIMURIUM, Strain/Indicator: TA100, Metabolic Activation: RAT, LIVER, S-9, PCB, Method: PREINCUBATION): inactive; negative

CCCC(Cl)C(=O)S (stereo unspecified)
mutagenic call (Test System: AMES SALMONELLA TYPHIMURIUM, Strain/Indicator: TA1535, Metabolic Activation: NONE): active; positive

O=CC(Cl)=C(Cl)Cl
mutagenic call [1]: active; positive | mutagenic call [3]: active; positive
